The values that follow come from patent publication US20080109040A1, “METHOD OF TREATING ARRHYTHMIAS” (priority 2002, published 2008).

The subject of data set [1] is epicardial preparations. The experiment in a line: Action potential studies in isolated canine ventricular epicardial tissues. On the set-up: Amplitude / Overshoot: unit not given beside the values. The following applies: for Amplitude / Overshoot / RMP: epicardial, BCL = 500 msec. On the procedure:
The composition of the Tyrode's solution was (in mM): […] Action potential recordings: Transmembrane potentials were recorded using standard glass microelectrodes filled with 2.7 M KCl (10 to 20 MΩ DC resistance) connected to a high input-impedance amplification system (World Precision Instruments, Sarasota, Fla., USA). […] Data recorded at BCLs of 500 and 2000 msec are presented.

Data set [2] concerns the target late INa (Canis lupus familiaris, UniProt Q865W3). Briefly: Late INa, perforated patch voltage clamp in isolated canine left ventricular myocytes. The format is cell-based. To be noted: 500 ms pulses to −30 mV at 1 Hz, read-out: Half-inhibition of late INa.
Data set [3] concerns the target T1, rapidly activating component of the delayed rectifier current (IKr) (Canis lupus familiaris, UniProt Q9TSZ3).
T1 construct: Myocytes were isolated by enzymatic dissociation from a wedge-shaped section of the left ventricular free wall; endogenous in cells; host or cells: isolated canine left ventricular myocytes (epicardial and midmyocardial)
T1 sequence (Q9TSZ3 1-1158): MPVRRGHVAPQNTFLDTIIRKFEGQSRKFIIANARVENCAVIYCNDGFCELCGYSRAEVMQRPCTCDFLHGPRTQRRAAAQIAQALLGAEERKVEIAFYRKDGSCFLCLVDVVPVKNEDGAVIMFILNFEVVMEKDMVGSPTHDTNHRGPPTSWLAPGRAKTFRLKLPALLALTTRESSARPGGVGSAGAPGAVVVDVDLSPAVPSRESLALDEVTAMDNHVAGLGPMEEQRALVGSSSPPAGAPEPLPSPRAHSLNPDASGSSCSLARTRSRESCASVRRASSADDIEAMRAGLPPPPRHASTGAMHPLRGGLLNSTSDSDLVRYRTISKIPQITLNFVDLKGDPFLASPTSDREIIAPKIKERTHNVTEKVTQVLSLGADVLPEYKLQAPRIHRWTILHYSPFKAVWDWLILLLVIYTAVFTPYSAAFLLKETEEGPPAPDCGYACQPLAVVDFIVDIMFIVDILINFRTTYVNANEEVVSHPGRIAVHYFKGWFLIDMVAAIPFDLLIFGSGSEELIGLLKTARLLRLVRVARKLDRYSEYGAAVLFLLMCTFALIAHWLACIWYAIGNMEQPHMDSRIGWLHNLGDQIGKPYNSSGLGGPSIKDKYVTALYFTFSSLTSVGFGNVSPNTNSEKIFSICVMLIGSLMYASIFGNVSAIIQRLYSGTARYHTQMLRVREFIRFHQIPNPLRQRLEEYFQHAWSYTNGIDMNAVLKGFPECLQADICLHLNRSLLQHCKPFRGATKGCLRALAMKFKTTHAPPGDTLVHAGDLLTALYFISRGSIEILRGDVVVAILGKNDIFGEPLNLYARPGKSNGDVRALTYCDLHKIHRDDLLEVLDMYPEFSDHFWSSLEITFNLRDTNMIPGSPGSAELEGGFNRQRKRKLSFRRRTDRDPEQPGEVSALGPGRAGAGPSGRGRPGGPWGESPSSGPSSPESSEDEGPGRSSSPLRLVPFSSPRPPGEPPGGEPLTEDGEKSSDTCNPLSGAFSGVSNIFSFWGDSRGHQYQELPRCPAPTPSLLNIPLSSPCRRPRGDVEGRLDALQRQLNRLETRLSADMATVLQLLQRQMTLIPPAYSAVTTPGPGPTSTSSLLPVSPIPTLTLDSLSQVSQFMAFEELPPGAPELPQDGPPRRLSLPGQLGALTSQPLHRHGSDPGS
Briefly: Whole cell voltage clamp of IKr tail current in isolated canine left ventricular myocytes. The format is cell-based. The method, then: Myocytes were isolated by enzymatic dissociation from a wedge-shaped section of the left ventricular free wall supplied by the left circumflex coronary artery. Cells from the epicardial and midmyocardial regions of the left ventricle were used in this study.
Inward rectifier potassium current (IK), slow delayed rectifier potassium current (IKs), and rapid delayed rectifier potassium current (IKr) were recorded at 37° C. using conventional whole cell voltage clamp configuration.
IK1 was measured using an external solution containing 3 μM ouabain and 5 μM nifedipine to block the sodium-potassium pump and L-type calcium current (ICa,L), respectively. […] 5 μM nifedipine was present in the external solution when IKr was being recorded.
Isolated myocytes were placed in a temperature controlled 0.5 ml chamber (Medical Systems, Greenvale, N.Y.) on the stage of an inverted microscope and superfused at a rate of 2 ml/min. […]
IKr was measured as the time-dependent tail current elicited at a potential of −40 mV following a short 250 ms depolarizing pulse to 30 mV. Data are presented as mean ±S.E.M. IK1 was recorded during 900 msec voltage steps applied from a holding potential of −40 mV to test potentials ranging from −100 mV to 0 mV, and was characterized as the 5 msec average of the steady state current at the end of the test pulse.

Setting [4] is: epicardium, low [K+]o, BCL = 2000 msec.

Chain of late INa (Q865W3 1-2013): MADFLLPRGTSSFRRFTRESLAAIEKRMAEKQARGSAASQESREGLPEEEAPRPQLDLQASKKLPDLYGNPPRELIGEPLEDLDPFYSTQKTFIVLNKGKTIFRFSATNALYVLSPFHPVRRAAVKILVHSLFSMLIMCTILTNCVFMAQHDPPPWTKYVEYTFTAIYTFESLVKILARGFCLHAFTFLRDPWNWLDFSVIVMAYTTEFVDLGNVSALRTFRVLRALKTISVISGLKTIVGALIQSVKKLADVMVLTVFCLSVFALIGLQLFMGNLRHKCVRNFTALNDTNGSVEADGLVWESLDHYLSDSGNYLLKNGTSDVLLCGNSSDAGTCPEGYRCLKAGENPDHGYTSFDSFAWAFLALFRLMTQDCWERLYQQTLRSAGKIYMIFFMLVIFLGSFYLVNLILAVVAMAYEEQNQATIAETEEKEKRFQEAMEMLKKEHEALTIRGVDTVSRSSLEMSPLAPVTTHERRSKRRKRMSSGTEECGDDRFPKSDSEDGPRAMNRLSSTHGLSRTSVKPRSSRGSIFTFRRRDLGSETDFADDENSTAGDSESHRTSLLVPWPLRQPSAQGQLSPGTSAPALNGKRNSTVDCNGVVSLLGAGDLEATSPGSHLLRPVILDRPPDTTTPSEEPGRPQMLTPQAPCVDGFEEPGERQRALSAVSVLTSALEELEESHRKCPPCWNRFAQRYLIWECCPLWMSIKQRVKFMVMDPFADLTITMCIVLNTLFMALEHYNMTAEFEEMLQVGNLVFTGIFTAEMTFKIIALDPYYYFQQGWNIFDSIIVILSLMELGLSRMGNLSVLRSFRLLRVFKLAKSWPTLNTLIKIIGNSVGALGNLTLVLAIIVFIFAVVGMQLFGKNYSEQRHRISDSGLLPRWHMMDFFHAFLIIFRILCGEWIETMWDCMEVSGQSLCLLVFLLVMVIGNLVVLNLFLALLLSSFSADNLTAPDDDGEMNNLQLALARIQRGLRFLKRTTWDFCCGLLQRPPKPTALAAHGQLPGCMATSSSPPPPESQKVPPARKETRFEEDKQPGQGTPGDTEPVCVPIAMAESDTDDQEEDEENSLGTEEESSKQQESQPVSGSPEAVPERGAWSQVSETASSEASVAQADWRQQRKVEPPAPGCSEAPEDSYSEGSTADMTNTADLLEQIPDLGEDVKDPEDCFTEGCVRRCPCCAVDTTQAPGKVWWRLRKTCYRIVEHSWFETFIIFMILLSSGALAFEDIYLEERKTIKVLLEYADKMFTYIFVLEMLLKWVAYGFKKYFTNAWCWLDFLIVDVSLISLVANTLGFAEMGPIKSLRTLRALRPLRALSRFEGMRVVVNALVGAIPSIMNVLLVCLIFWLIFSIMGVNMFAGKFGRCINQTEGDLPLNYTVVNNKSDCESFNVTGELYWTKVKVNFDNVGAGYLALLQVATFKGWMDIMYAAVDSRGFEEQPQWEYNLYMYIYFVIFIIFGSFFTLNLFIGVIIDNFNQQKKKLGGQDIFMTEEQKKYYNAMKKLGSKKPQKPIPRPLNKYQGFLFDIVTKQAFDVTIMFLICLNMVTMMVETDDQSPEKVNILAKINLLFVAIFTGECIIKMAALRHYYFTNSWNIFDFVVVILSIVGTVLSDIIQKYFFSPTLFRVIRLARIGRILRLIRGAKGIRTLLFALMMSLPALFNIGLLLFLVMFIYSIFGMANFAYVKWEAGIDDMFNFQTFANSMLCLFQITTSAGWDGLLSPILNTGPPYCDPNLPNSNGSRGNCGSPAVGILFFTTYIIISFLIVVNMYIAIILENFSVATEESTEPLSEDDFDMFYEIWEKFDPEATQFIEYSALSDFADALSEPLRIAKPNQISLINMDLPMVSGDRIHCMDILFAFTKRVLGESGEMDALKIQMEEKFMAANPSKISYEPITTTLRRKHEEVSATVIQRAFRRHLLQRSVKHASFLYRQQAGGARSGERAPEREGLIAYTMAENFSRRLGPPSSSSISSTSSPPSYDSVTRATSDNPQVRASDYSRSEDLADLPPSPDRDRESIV

Turning to `COc1ccccc1OCC(O)CN1CCN(CC(=O)Nc2c(C)cccc2C)CC1` (racemic) [ranolazine, N-(2,6-dimethylphenyl)-4-[2-hydroxy-3-(2-methoxyphenoxy)propyl]-1-piperazineacetamide], the “Effect on APD” value in data set [1] (epicardial tissues, BCL 500 msec) is given as “concentration-dependent prolongation”. Also, the Amplitude worked out at 93 ± 5 in data set [1] (ranolazine 1.0 μM); 101 ± 2 in data set [1] (ranolazine 5.0 μM); 94 ± 5 in data set [1] (ranolazine 10.0 μM); 86 ± 12 in data set [1] (ranolazine 50.0 μM); 93 ± 3 in data set [1] (ranolazine 100.0 μM (n=2)). Moreover, the Overshoot in data set [1] (ranolazine 1.0 μM) came to 10 ± 4; in data set [1] (ranolazine 5.0 μM) it was 12 ± 3; in data set [1] (ranolazine 10.0 μM) it was 8 ± 4; in data set [1] (ranolazine 50.0 μM), 0 ± 11; in data set [1] (ranolazine 100.0 μM (n=2)), 8 ± 4. The RMP in data set [1] (ranolazine 1.0 μM) was −84 ± 4; in data set [1] (ranolazine 5.0 μM), −89 ± 1; in data set [1] (ranolazine 10.0 μM), −88 ± 2; in data set [1] (ranolazine 50.0 μM) it was −86 ± 1; in data set [1] (ranolazine 100.0 μM (n=2)), −85 ± 3. The “Effect on APD90” value was “prominent concentration-dependent prolongation” in data set [1] (epicardium, low [K+]o, BCL 500 msec) and “concentration-dependent prolongation” in data set [1] (setting [4]). Besides, the “Effect on APD50” value in data set [1] (setting [4]) is reported as “little change”. Besides, the “Effect on APD in two of four epicardial preparations” value in data set [1] (ranolazine 100.00 μM, BCL 500 msec) was “excessive APD prolongation”. Further, the IC50 in data set [2] amounted to 21 µM; in data set [3] (tail current at −40 mV after 250 msec pulse to 30 mV, read-out: IC50 for inhibition of IKr tail current), 11.5 µM. The “Block of IKr” value in data set [3] (ranolazine 50 μM) is on record as “almost completely blocked”.
